This is an account of results in US8119626B2, “Oxime derivative and preparations thereof” (Mitsubishi Tanabe Pharma Corporation, priority 2005, dated 2012).

Molecules are shown by their SMILES. pEC50: −log10 of the molar value.

The target of the test is T1, human-liver type GST-GK (Homo sapiens, UniProt P35557).
T1 construct: made in house; host or cells: E. coli
T1 sequence (P35557 1-466 isoform P35557-2): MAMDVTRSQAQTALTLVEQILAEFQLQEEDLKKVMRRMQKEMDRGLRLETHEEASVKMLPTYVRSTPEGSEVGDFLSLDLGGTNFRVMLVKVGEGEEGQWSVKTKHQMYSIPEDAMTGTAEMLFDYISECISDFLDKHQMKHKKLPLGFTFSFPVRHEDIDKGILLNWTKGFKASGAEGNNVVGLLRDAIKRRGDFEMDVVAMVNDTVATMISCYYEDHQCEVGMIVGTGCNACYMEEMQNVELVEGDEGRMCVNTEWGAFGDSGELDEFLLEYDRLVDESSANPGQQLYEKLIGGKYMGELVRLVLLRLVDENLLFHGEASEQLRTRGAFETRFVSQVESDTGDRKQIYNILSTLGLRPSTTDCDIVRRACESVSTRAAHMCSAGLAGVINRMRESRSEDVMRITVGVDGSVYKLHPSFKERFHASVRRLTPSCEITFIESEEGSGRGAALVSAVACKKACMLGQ
The test can be described thus: Glucokinase activation effect (G6PDH-coupled NADPH assay). The conditions noted are these: 5 mM glucose, 5 mM ATP, 30° C., absorbance 340 nm for 15 minutes, 5% DMSO. It counts as biochemical. The procedure:
A glucokinase activity was examined by measuring the amount of NADPH obtained in generating 6-phosphogluconic acid from glucose-6-phosphoric acid by a coupling enzyme glucose-6-phosphate dehydrogenase not by measuring directly the produced glucose-6-phosphoric acid. The glucokinase enzyme used in the examination is human-liver type GST-GK expressed in E. Coli. The measurement of GK activity was carried out by the following procedures.
Twenty five mM HEPES buffer (pH7.4) containing 25 mM MgCl2, […], 1 mM DTT, 5 mM NADP (Roche), 16.64 μg/mL G6PDH (Roche 737-232 grade II from yeast) and 2.8 μg/mL GST-GK was prepared as a reaction solution. An evaluating compound dissolved in DMSO was added to the reaction solution to give final concentration of 0.001 to 100 μM (5% DMSO). Thereto was added glucose (final concentration of 5 mM) as a substrate and was added ATP (final concentration of 5 mM), and the reaction was started. The reaction temperature is 30° C. and a generation of NADPH was monitored by changes of absorbance of 340 nm. An increasing in absorbance for 15 minutes from starting reaction was measured and the blank-corrected value was used as GK activity (mOD/min). EC50 level was calculated by a GK activity level in at each concentration of an evaluating compound.
For orientation: pEC50 means −log10 of the EC50, conventionally taken in molar units. Read a high pEC50 as a low EC50. `O=C1CN(Cc2cnc(NC(=O)/C(=N/O[C@@H]3CCOC3)c3ccc(S(=O)(=O)C4CC4)cc3)s2)CCN1` [Example 6] gave a pEC50 of 5.92.

The compound `CC(=O)N1CCN(Cc2cnc(NC(=O)/C(=N/O[C@@H]3CCOC3)c3ccc(S(=O)(=O)C4CC4)cc3)s2)C[C@@H]1C` [Example 9] gave a negative-log EC50 (pEC50) of 6.26. `CC(=O)N1CCN(Cc2cnc(NC(=O)/C(=N/O[C@@H]3CCOC3)c3ccc(S(=O)(=O)C4CC4)cc3)s2)CC1` [Example 10] had a negative-log EC50 (pEC50) of 6.10.

`COCC(=O)N1[C@H](C)CN(Cc2cnc(NC(=O)/C(=N/O[C@@H]3CCOC3)c3ccc(S(=O)(=O)C4CC4)cc3)s2)C[C@@H]1C` [Example 11] gave a pEC50 of 6.06. The result for `CN(C)CCOc1ccc2nc(NC(=O)/C(=N/O[C@@H]3CCOC3)c3ccc(S(=O)(=O)C4CC4)cc3)sc2n1` [Example 13-3] reads 6.77; that for `O=C(Nc1ncc(CN2CCOCC2)s1)/C(=N/O[C@@H]1CCOC1)c1ccc(S(=O)(=O)C2CC2)cc1` [Example 18-2], 6.03; that for `COc1ccc2nc(NC(=O)/C(=N/O[C@@H]3CCOC3)c3ccc(S(=O)(=O)C4CC4)cc3)sc2n1` [Example 24-25], 7.08. The result for `O=C(O)CCSc1cnc(NC(=O)/C(=N/O[C@@H]2CCOC2)c2ccc(S(=O)(=O)C3CC3)cc2)s1` [Example 46-1] reads 7.00; that for `CC(=O)N1CCC(OCc2cnc(NC(=O)/C(=N/O[C@@H]3CCOC3)c3ccc(S(=O)(=O)C4CC4)cc3)s2)CC1` [Example 56], 6.49. The result for `O=C(Nc1ncc(F)s1)/C(=N/OCc1ncccn1)c1ccc(S(=O)(=O)C2CC2)cc1` [Example 62-5] reads 6.39; that for `Cn1ccc(CO/N=C(/C(=O)Nc2ncc(F)s2)c2ccc(S(=O)(=O)C3CC3)cc2)n1` [Example 62-10], 6.57. `O=C(Nc1ncc(F)s1)/C(=N/OCCCO)c1ccc(S(=O)(=O)C2CC2)cc1` [Example 67-2] gave a pEC50 of 6.41.

In turn, `O=C(Nc1ncc(F)s1)/C(=N/O[C@@H]1CCOC1)c1ccc(S(=O)(=O)N2CCCOCC2)cc1` [Example 82-22] gave a pEC50 of 6.59. The pEC50 values of the last two compounds are within 0.2 log units of each other. Compound `O=C(Nc1ncc(F)s1)/C(=N/O[C@@H]1CCOC1)c1ccc(S(=O)(=O)NCCF)cc1` [Example 82-78] had a negative logarithm of the EC50 (pEC50) of 6.22. This pEC50 lies 0.37 log units lower than the previous one.

Turning to `Cn1ccnc1CS(=O)(=O)c1ccc(/C(=N\O[C@@H]2CCOC2)C(=O)Nc2ncc(F)s2)cc1` [Example 84-12], the pEC50 is 6.39. As for `CS(=O)(=O)c1ccc(/C(=N\OC2CCCC2)C(=O)Nc2ncc(C(N)=O)s2)cc1` [Example 91-8], the figure is 6.28; as for `O=C(Nc1nccs1)/C(=N/OCc1ccccn1)c1ccc(S(=O)(=O)C2CC2)cc1` [Example 94-6], 6.29. As for `COCCCS(=O)(=O)c1ccc(/C(=N\O[C@@H]2CCOC2)C(=O)Nc2ncc(COC)s2)cc1` [Example 98-1], the figure is 6.08. The result for `COCCCS(=O)(=O)c1ccc(/C(=N\O[C@@H]2CCOC2)C(=O)Nc2nc3ccc(OCCO)nc3s2)cc1` [Example 98-7] reads 6.64; that for `C[C@@H](CO)O/N=C(/C(=O)Nc1ncc(Cl)s1)c1ccc(S(=O)(=O)C2CC2)cc1` [Example 104-2], 6.52; that for `Cc1nsc(NC(=O)/C(=N/O[C@@H]2CC[C@@H](O)C2)c2ccc(S(=O)(=O)C3CC3)cc2)n1` [Example 116], 6.24.

For the compound `COc1cnc(NC(=O)/C(=N/O[C@@H]2CC[C@@H](OC)C2)c2ccc(S(=O)(=O)C3CC3)cc2)cn1` [Example 139-41], the negative-log EC50 (pEC50) is 6.27.

With `CCN(CCO)S(=O)(=O)c1ccc(/C(=N\O[C@@H]2CCOC2)C(=O)Nc2cnc(C3CC3)cn2)cc1` [Example 139-94], the pEC50 was 6.46. This pEC50 and that of the compound before are within 0.2 log units of each other. The result for `COCCN(C)S(=O)(=O)c1ccc(/C(=N\O[C@@H]2CCOC2)C(=O)Nc2ncc(CN3CCN(C)CC3)s2)cc1` [Example 139-125] reads 6.12.

Regarding `COCCCS(=O)(=O)c1ccc(/C(=N\OCc2ncccn2)C(=O)Nc2nc3ccc(OC)nc3s2)cc1` [Example 139-134], the pEC50 was 6.74. As for `COCCCS(=O)(=O)c1ccc(/C(=N\OC2CCCC2)C(=O)Nc2ccc(C(N)=O)cn2)cc1` [Example 139-159], the figure is 6.28. `COCCCS(=O)(=O)c1ccc(/C(=N\O[C@@H]2CC[C@@H](O)C2)C(=O)Nc2ncc(C)s2)cc1` [Example 139-182] showed a pEC50 of 6.28. The result for `COCCCS(=O)(=O)c1ccc(/C(=N\O[C@@H]2CCOC2)C(=O)Nc2nc3ccc(OCCO)cc3s2)cc1` [Example 139-214] reads 6.24; that for `CNc1ccc2nc(NC(=O)/C(=N/O[C@@H]3CCOC3)c3ccc(S(=O)(=O)CCCOC)cc3)sc2n1` [Example 139-221], 6.89. `CC(=O)N1CCN(Cc2cnc(NC(=O)/C(=N/O[C@@H]3CCOC3)c3ccc(S(=O)(=O)[C@H]4CCOC4)cc3)s2)C[C@H]1C` [Example 139-237] had a pEC50 of 6.22.

`CNCCOc1ccc2nc(NC(=O)/C(=N/O[C@@H]3CCOC3)c3ccc(S(=O)(=O)NCCO)cc3)sc2n1` [Example 139-244] showed a pEC50 of 6.34.
